Consider 73 sequences from the OligoGym collection.

The target in the series is KRAS. Conditions: ASO.

Values joined by “and” are separate entries in the source; they are usually repeats but may differ in a detail not shown here. Identical values can stand only once. After the bases stand the sugars from the 5' end (letter, count) and the backbone: PS all phosphorothioate, else s phosphorothioate and o phosphodiester by linkage. Methylation of C is not given here. e = 2'-O-(2-methoxyethyl) (MOE); k = constrained ethyl (cEt); d = 2'-deoxy (DNA)

“CCAGTGTTAAGAGAAC (sugars kkdddddddddkekek, PS)” came in with a target mRNA inhibition (A431, 2 µM) of 43%.

TAATAGTTTCCATTGC (sugars k3 d10 k3, PS) had a target mRNA inhibition (A431, 2 µM) of 53%.

Take GGCATTTCTGATGTGA (sugars k3 d10 k3, PS): the target mRNA inhibition (A431, 2 µM) turned out to be 8%.

As for “TGCTGTGAAACTCTCT (sugars k3 d9 k3 e1, PS)”, the target mRNA inhibition (A431, 2 µM) amounted to 23%.

GCATTTCTGATGTGAC (sugars k3 d10 k3, PS) showed a target mRNA inhibition (A431, 2 µM) of 24%.

The sequence AAAGTGTTTATGCAAT (sugars k3 d10 k3, PS) had a target mRNA inhibition (A431, 2 µM) of 29%.

“AGATTGTGCTGAGCTT (sugars kkdddddddddkekek, PS)” returned a target mRNA inhibition (A431, 2 µM) of 38%.

In turn, “AGATTGTGCTGAGCTT (sugars kkddddddddkekekk, PS)” registered a target mRNA inhibition (A431, 2 µM) of 0%.

With ATGGTGAATATCTTCA (sugars k3 d10 k3, PS), the target mRNA inhibition (A431, 1.667 µM) was 45% and 31%; the target mRNA inhibition (A431, 2 µM) amounted to 64%; the target mRNA inhibition (A431, 5 µM) was 70% and 65%.

Turning to “GGAGTCTTTATAGTAA (sugars k3 d9 k3 e1, PS)”, the target mRNA inhibition (A431, 2 µM) amounted to 41%.

In the case of “CAGTGTGACTCAGTTA (sugars kkkddddddddkekek, PS)”, the target mRNA inhibition is, setting by setting: (A431, 0.185 µM) 28%; (A431, 0.556 µM) 24%; (A431, 1.667 µM) 46%; (A431, 2 µM) 63%; (A431, 5 µM) 71%.

Where the note is “A431, 2 µM”, “TTGATTTGTCAGCAGG (sugars kkdddddddddkdkdk, PS)” showed a target mRNA inhibition of 53%.

Turning to “ATGGTGTAACATAGGT (sugars kkkddddddddkekek, PS)”, the target mRNA inhibition (A431, 2 µM) came out at 43%.

Under “A431, 2 µM”, TTTATGCAATGTTAAT (sugars k3 d10 k3, PS) had a target mRNA inhibition of 34%.

As to “TGGTGTAACATAGGTT (sugars kkdddddddddkdkdk, PS)”, the target mRNA inhibition reads like this: (A431, 0.185 µM) 13%; (A431, 0.556 µM) 33%; (A431, 1.667 µM) 63%; (A431, 2 µM) 57%; (A431, 5 µM) 75%.

In the case of TCTTGATTTGTCAGCA (sugars k3 d10 k3, PS), the target mRNA inhibition (A431, 0.185 µM) is 13% and 0%; the target mRNA inhibition (A431, 0.556 µM) was 22% and 21%; the target mRNA inhibition (A431, 1.667 µM) is 60% and 47%; the target mRNA inhibition (A431, 2 µM) stood at 62%; the target mRNA inhibition (A431, 5 µM) was 75% and 69%.

CTGTGAAACTCTCTAT (sugars k3 d10 k3, PS) registered a target mRNA inhibition (A431, 2 µM) of 29%.

For TTCAAAGTTCACATAA (sugars k3 d10 k3, PS), the target mRNA inhibition (A431, 2 µM) came out at 7%.

For “AGATTGTGCTGAGCTT (sugars kkkddddddddkekek, PS)”, the target mRNA inhibition (A431, 2 µM) was found to be 26%.

TCTCCATTAGTAAATA (sugars k3 d10 k3, PS) gave a target mRNA inhibition (A431, 2 µM) of 13%.

In turn, CTAAAACAAATGCTAA (sugars k3 d10 k3, PS) displayed a target mRNA inhibition (A431, 2 µM) of 15%.

In turn, “ATGGTGTAACATAGGT (sugars kddddddddddkekek, PS)” gave a target mRNA inhibition (A431, 2 µM) of 47%.

“ACCATTCAAAGTTCAC (sugars kkdddddddddkekek, PS)” came in with a target mRNA inhibition (A431, 2 µM) of 36%.

Where the note is “A431, 2 µM”, “CTTGATTTGTCAGCAG (sugars k3 d9 k3 e1, PS)” returned a target mRNA inhibition of 46%.

As to GGAGATATCCACAGCA (sugars k3 d10 k3, PS), the target mRNA inhibition (A431, 2 µM) was 0%.

As to “GAGTCTTTATAGTAAT (sugars kkddddddddkekekk, PS)”, under “A431, 2 µM”, the target mRNA inhibition is 0%.

In the case of AATGGTGAATATCTTC (sugars k3 d10 k3, PS), the target mRNA inhibition by setting is: (A431, 0.037 µM) 58%; (A431, 2 µM) 50%; (A431, 5 µM) 97% and 90%; (NCI-H460, 0.037 µM) 33.3%.

Regarding AGGCAAGATGACACTA (sugars k3 d10 k3, PS), the target mRNA inhibition (A431, 2 µM) was found to be 21%.

Regarding “GGTGTAACATAGGTTA (sugars kkddddddddkekekk, PS)”, the target mRNA inhibition was found to be 0% (A431, 0.185 µM); 2% (A431, 0.556 µM); 40% (A431, 1.667 µM); 54% (A431, 2 µM); 58% (A431, 5 µM).

“AGGAGTCTTTATAGTA (sugars kdddddddddkekeke, PS)” registered a target mRNA inhibition (A431, 2 µM) of 24%.

On to ATGGTGTAACATAGGT (sugars k3 d10 k3, PS), for which the target mRNA inhibition by setting is: (A431, 0.185 µM) 17%; (A431, 0.556 µM) 36%; (A431, 1.667 µM) 59%; (A431, 2 µM) 59% and 47% and 52%; (A431, 5 µM) 75%.

As for “CCATTTATGTGACTAG (sugars kkdddddddddkekek, PS)”, the target mRNA inhibition (A431, 2 µM) came to 25%.

With CATTCAAAGTTCACAT (sugars k3 d10 k3, PS), the target mRNA inhibition (A431, 2 µM) was 2%.

As for “TGTTTATGCAATGTTA (sugars k3 d9 k3 e1, PS)”, the target mRNA inhibition reads like this: (A431, 0.185 µM) 43%; (A431, 0.556 µM) 57%; (A431, 1.667 µM) 78%; (A431, 2 µM) 72%; (A431, 5 µM) 90%; (NCI-H460, 0.037 µM) 65.6%.

Under “A431, 2 µM”, “ATGGTGTAACATAGGT (sugars kkddddddddkekekk, PS)” showed a target mRNA inhibition of 40%.

Consider AAAAAAAAATTAATGT (sugars k3 d10 k3, PS), for which the target mRNA inhibition (A431, 2 µM) was found to be 16%.

Consider “TGATTTGTCAGCAGGA (sugars kkddddddddddkeke, PS)”, for which the target mRNA inhibition reads like this: (A431, 0.185 µM) 31%; (A431, 0.556 µM) 48%; (A431, 1.667 µM) 67%; (A431, 2 µM) 55%; (A431, 5 µM) 8%.

In the case of “GGAGTCTTTATAGTAA (sugars kkdddddddddkdkdk, PS)”, the target mRNA inhibition (A431, 2 µM) was determined as 29%.

The sequence “TCCAGTGATACTTTCA (sugars kkdddddddddkdkdk, PS)” showed a target mRNA inhibition (A431, 2 µM) of 35%.

Turning to AACCAGTGTTAAGAGA (sugars k3 d10 k3, PS), the target mRNA inhibition (A431, 2 µM) worked out at 35%.

Take GATGTAGGGCATTTCT (sugars k3 d10 k3, PS): the target mRNA inhibition (A431, 2 µM) was determined as 0%.

Under “A431, 2 µM”, “CAGTGTGACTCAGTTA (sugars kddddddddddkekek, PS)” yielded a target mRNA inhibition of 32%.

As for “TAGTGATTAGGTCAAA (sugars k3 d9 k3 e1, PS)”, under “A431, 2 µM”, the target mRNA inhibition came out at 43%.

Regarding CTTGTACTAGTATGCC (sugars k3 d10 k3, PS), the target mRNA inhibition is 24% and 13% (A431, 0.185 µM); 46% and 35% (A431, 0.556 µM); 67% and 52% (A431, 1.667 µM); 59% (A431, 2 µM); 77% and 71% (A431, 5 µM).

“TGGTGTAACATAGGTT (sugars k3 d9 k3 e1, PS)” gave a target mRNA inhibition (A431, 0.185 µM) of 21%; a target mRNA inhibition (A431, 0.556 µM) of 46%; a target mRNA inhibition (A431, 1.667 µM) of 69%; a target mRNA inhibition (A431, 2 µM) of 56%; a target mRNA inhibition (A431, 5 µM) of 80%.

Turning to AGGCATTGCTAGTTCA (sugars k3 d10 k3, PS), for the setting “A431, 2 µM”, the target mRNA inhibition is 55%.

As to “CTTGATTTGTCAGCAG (sugars kkkddddddddkekek, PS)”, the target mRNA inhibition (A431, 2 µM) was 41%.

“GTGTTTATGCAATGTT (sugars kkddddddddkekekk, PS)” had a target mRNA inhibition (A431, 2 µM) of 9%.

In the case of GTTCTGTCTATTCATA (sugars k3 d10 k3, PS), under “A431, 2 µM”, the target mRNA inhibition turned out to be 31%.

“CCAGTGTTAAGAGAAC (sugars k3 d9 k3 e1, PS)” returned a target mRNA inhibition (A431, 2 µM) of 55%.

Where the note is “A431, 2 µM”, “CAGTGTGACTCAGTTA (sugars kkdddddddddkekek, PS)” came in with a target mRNA inhibition of 56%.

Consider ATGCTAATAATTTAGT (sugars k3 d10 k3, PS), for which the target mRNA inhibition (A431, 2 µM) amounted to 11%.

CTGTCTATTCATACCA (sugars k3 d10 k3, PS) showed a target mRNA inhibition (A431, 2 µM) of 34%.

Take AAAAGTGTTTATGCAA (sugars k3 d10 k3, PS): the target mRNA inhibition (A431, 2 µM) worked out at 32%.

Consider TCCATTTATGTGACTA (sugars k3 d10 k3, PS), for which the target mRNA inhibition turned out to be 29% (A431, 0.185 µM); 59% (A431, 0.556 µM); 65% (A431, 1.667 µM); 78% (A431, 5 µM).

In turn, TTATGGTTAGGGGAAT (sugars k3 d10 k3, PS) yielded a target mRNA inhibition (A431, 2 µM) of 21%.

Sequence “GTGTTTATGCAATGTT (sugars k3 d9 k3 e1, PS)” came in with a target mRNA inhibition (A431, 0.185 µM) of 19%; a target mRNA inhibition (A431, 0.556 µM) of 63%; a target mRNA inhibition (A431, 1.667 µM) of 79%; a target mRNA inhibition (A431, 2 µM) of 59%; a target mRNA inhibition (A431, 5 µM) of 88%.

The sequence ATTCAAAGTTCACATA (sugars k3 d10 k3, PS) came in with a target mRNA inhibition (A431, 2 µM) of 0%.

CAGATTGTGCTGAGCT (sugars k3 d10 k3, PS): the target mRNA inhibition (A431, 2 µM) came to 29%.

As to GGGCATTTCTGATGTG (sugars k3 d10 k3, PS), the target mRNA inhibition (A431, 2 µM) worked out at 7%.

Consider “CATTCAAAGTTCACAT (sugars kddddddddddkekek, PS)”, for which, where the note is “A431, 2 µM”, the target mRNA inhibition came out at 43%.

Under “A431, 2 µM”, “GTGTGACTCAGTTAAA (sugars kkddddddddkekekk, PS)” showed a target mRNA inhibition of 38%.

For the setting “A431, 2 µM”, “CCATTCAAAGTTCACA (sugars kkdddddddddkekek, PS)” registered a target mRNA inhibition of 36%.

With TTAATCCATTTATGTG (sugars k3 d10 k3, PS), the target mRNA inhibition (A431, 2 µM) was determined as 34%.

Under “A431, 2 µM”, “TCCATTTATGTGACTA (sugars kkdddddddddkekek, PS)” displayed a target mRNA inhibition of 32%.

On to TGGTGAATATCTTCAA (sugars k3 d10 k3, PS), for which the target mRNA inhibition (A431, 2 µM) was 9%.

Regarding TTCATTGTTTAAAAAA (sugars k3 d10 k3, PS), for the setting “A431, 2 µM”, the target mRNA inhibition came out at 6%.

With “TGTTTATGCAATGTTA (sugars kkkddddddddkekek, PS)”, under “A431, 2 µM”, the target mRNA inhibition came out at 52%.

The sequence “CATTTATGTGACTAGA (sugars kdddddddddkekeke, PS)” came in with a target mRNA inhibition (A431, 2 µM) of 24%.

CAACTGCATGCACCAA (sugars k3 d10 k3, PS) came in with a target mRNA inhibition (A431, 2 µM) of 31%.

Turning to TTGTACTAGTATGCCT (sugars k3 d10 k3, PS), the target mRNA inhibition (A431, 2 µM) was determined as 55%.

Where the note is “A431, 2 µM”, “ACCATTCAAAGTTCAC (sugars kkkddddddddkdkdk, PS)” gave a target mRNA inhibition of 12%.

The sequence GTTGAGCTATCCAAAC (sugars k3 d10 k3, PS) yielded a target mRNA inhibition (A431, 2 µM) of 2%.
